Results published in patent publication US12577250B2, “1,2,4-triazolone derivative as DHODH inhibitor, and preparation method therefor and use thereof” (WIGEN BIOMEDICINE TECHNOLOGY (SHANGHAI) CO., LTD., priority 2021, dated 2026).
Like-named read-outs stand apart in the source and are kept apart here.

Columns and labels:
[1] = biological target: DHODH (Homo sapiens, UniProt Q02127); assay: Assay against enzyme activity of DHODH (DCIP absorption at 600 nm); type: biochemical
Procedure: The enzyme activity of DHODH was assayed through a cascade reaction to determine its ability to catalyze the oxidation of a natural substrate DHO (dihydroorotic acid) to orotic acid while reducing coenzyme Q. The enzyme activity of DHODH was indirectly detected by assaying the ability of the coenzyme Q to reduce a chromogenic substrate DCIP. After the compound and an enzyme reaction mixture were incubated for 5 min, a reaction substrate DHO was added to start the reaction, and the enzyme activity was assayed by assaying the absorption at 600 nm to detect the DCIP exhaustion in a timed manner.

[2] = test system: THP-1 cells; assay: Anti-proliferative activity on THP-1 cells (CellTiter-Lumi, 72 h); type: cell-based; details: read-out: Cell anti-proliferative activity IC50 THP-1
Procedure: (§1) THP-1 cells were seeded into a 384-well plate (Fisher 142762) at 3000 cells per well. The next day, serially diluted compounds were added, and 72 h after the addition, CellTiter-Lumi (Beyotime C0068XL) was added to measure the ATP content in the cells. The growth of the cells was evaluated, and IC50 of the compounds against cell growth was calculated.

[3] = Pharmacokinetic evaluation in mice; type: in vivo, male ICR mice
Procedure: The compounds were administered by intravenous injection at a dose of 2 mg/kg and oral gavage at a dose of 10 mg/kg (0.5% CMC-Na suspension). 15 male ICR mice were selected, and each mouse was subjected to blood collection at 3 discrete time points, with 3 mice per time point. The time points of sampling were as follows: before administration, and 5 min, 15 min, 30 min, 1 h, 3 h, 5 h, 8 h, 12 h and 24 h after administration. 80 μL of blood was collected from the orbits or hearts of the mice at each time point after administration. All whole blood samples were collected in tubes containing EDTAK2 and centrifuged (1500-1600 rmp/min) at 4° C. for 10 min to isolate plasma, which was then stored in a refrigerator at −90° C. to −60° C. for sample analysis. The compound concentration in the plasma was determined by liquid chromatography-tandem mass spectrometry, and the corresponding pharmacokinetic parameters were obtained according to a plasma concentration-time curve.

[4] = test system: MV-4-11 cells; assay: Anti-proliferative activity on MV-4-11 cells (CellTiter-Lumi, 72 h); type: cell-based; details: read-out: Cell anti-proliferative activity IC50 MV-4-11
Procedure: as §1, with “MV-4-11” for “THP-1”

[5] = male, ICR, mouse, plasma, iv, 2 mg/kg
[6] = male, ICR, mouse, plasma, po, 10 mg/kg (0.5% CMC-Na suspension)
[7] = Homo sapiens, MV4-11, 72 h, class symbols

Chain of DHODH (Q02127 whole entry): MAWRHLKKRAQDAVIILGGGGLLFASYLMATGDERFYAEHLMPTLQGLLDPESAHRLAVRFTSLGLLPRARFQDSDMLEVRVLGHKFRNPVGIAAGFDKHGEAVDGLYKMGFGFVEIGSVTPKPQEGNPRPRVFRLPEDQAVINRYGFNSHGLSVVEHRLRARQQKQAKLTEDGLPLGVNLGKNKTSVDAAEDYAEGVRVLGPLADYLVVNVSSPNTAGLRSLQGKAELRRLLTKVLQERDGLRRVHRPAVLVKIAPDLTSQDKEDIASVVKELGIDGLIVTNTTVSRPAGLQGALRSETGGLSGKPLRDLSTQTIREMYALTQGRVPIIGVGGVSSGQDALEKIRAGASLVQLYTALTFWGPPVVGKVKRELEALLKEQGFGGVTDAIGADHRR

Row | IC50 [1] | IC50 ([4]; Homo sapiens, MV4-11, 72 h) | IC50 [4, 7] | further results | Compound
1 | < 50 nM | 1.27 nM | – | IC50 ([2]; Homo sapiens): 27.6 nM; AUC(0-t) [3, 5]: 2530 ng·h/mL; clearance [3, 5]: 13.2 mL/min/kg; half-life [3, 5]: 1.79 h; Vd ([3]; male, ICR, mouse, plasma, iv, 2 mg/kg, read-out: Vss): 1.66 L/kg; AUC(0-t) [3, 6]: 7780 ng·h/mL; Cmax [3, 6]: 2240 ng/mL; Tmax [3, 6]: 0.25 h; half-life [3, 6]: 2.07 h; oral bioavailability (in words) ([3]; po): good oral bioavailability; F ([3]; po 10 mg/kg vs iv 2 mg/kg): 61.7% | C[C@H](Oc1cc(-n2nc3n(c2=O)CCC2(CC2)C3)c(F)cc1C(=O)Nc1c(F)cccc1Cl)C(F)(F)F [Compound 1, (S)—N-(2-chloro-6-fluorophenyl)-5-fluoro-4-(3′-oxo-5′,6′-dihydro-3′H-spiro[cyclopropane-1,7-[1,2,4]triazolo[4,3-α]pyridin]-2′(8′H)-yl)-2-((1,1,1-trifluoropropan-2-yl)oxy)benzamide]
2 | < 50 nM | – | ≤ 50 nM | – | Cc1cc(N)ccc1NC(=O)c1cc(F)c(-n2nc3n(c2=O)CCC2(CC2)C3)cc1O[C@@H](C)C(F)(F)F [Compound 25]
3 | < 50 nM | – | ≤ 50 nM | – | C[C@H](Oc1cc(-n2nc3n(c2=O)CCC2(CC2)C3)c(F)cc1C(=O)Nc1ccc(N)cc1C(F)(F)F)C(F)(F)F [Compound 26]
4 | < 50 nM | – | ≤ 50 nM | – | C[C@H](Oc1cc(-n2nc3n(c2=O)CCC2(CC2)C3)c(F)cc1C(=O)Nc1c(F)cc(F)cc1Cl)C(F)(F)F [Compound 27]
5 | < 50 nM | – | ≤ 50 nM | – | C[C@H](Oc1cc(-n2nc3n(c2=O)CCC2(CC2)C3)c(F)cc1C(=O)Nc1c(Cl)cc(F)cc1Cl)C(F)(F)F [Compound 28]
6 | < 50 nM | – | ≤ 50 nM | – | Cc1cc(F)cc(Cl)c1NC(=O)c1cc(F)c(-n2nc3n(c2=O)CCC2(CC2)C3)cc1O[C@@H](C)C(F)(F)F [Compound 29]
7 | < 50 nM | – | ≤ 50 nM | – | COc1cc(F)c(NC(=O)c2cc(F)c(-n3nc4n(c3=O)CCC3(CC3)C4)cc2O[C@@H](C)C(F)(F)F)c(F)c1 [Compound 30]
8 | < 50 nM | – | ≤ 50 nM | – | C[C@H](Oc1cc(-n2nc3n(c2=O)CCC2(CC2)C3)c(F)cc1C(=O)Nc1c(Cl)ccc(F)c1F)C(F)(F)F [Compound 31]
9 | < 50 nM | – | ≤ 50 nM | – | Cc1ccc(Cl)c(NC(=O)c2cc(F)c(-n3nc4n(c3=O)CCC3(CC3)C4)cc2O[C@@H](C)C(F)(F)F)c1C [Compound 32]
10 | < 50 nM | – | 50 to 500 nM | – | Cc1cccnc1NC(=O)c1cc(F)c(-n2nc3n(c2=O)CCC2(CC2)C3)cc1O[C@@H](C)C(F)(F)F [Compound 33]
11 | < 50 nM | 10.2 nM | – | – | Cc1cnccc1NC(=O)c1cc(F)c(-n2nc3n(c2=O)CCC2(CC2)C3)cc1O[C@@H](C)C(F)(F)F [Compound 34]
12 | < 50 nM | 6.79 nM | – | – | COc1ccnc(C)c1NC(=O)c1cc(F)c(-n2nc3n(c2=O)CCC2(CC2)C3)cc1O[C@@H](C)C(F)(F)F [Compound 35]
13 | < 50 nM | 12.4 nM | – | – | Cc1ccnc(Cl)c1NC(=O)c1cc(F)c(-n2nc3n(c2=O)CCC2(CC2)C3)cc1O[C@@H](C)C(F)(F)F [Compound 36]
14 | < 50 nM | 10.5 nM | – | – | COc1nccc(Cl)c1NC(=O)c1cc(F)c(-n2nc3n(c2=O)CCC2(CC2)C3)cc1O[C@@H](C)C(F)(F)F [Compound 37]
15 | < 50 nM | 21.4 nM | – | – | Cc1n[nH]c(C)c1NC(=O)c1cc(F)c(-n2nc3n(c2=O)CCC2(CC2)C3)cc1O[C@@H](C)C(F)(F)F [Compound 38]
16 | < 50 nM | 65.8 nM | – | – | Cc1n[nH]c(Cl)c1NC(=O)c1cc(F)c(-n2nc3n(c2=O)CCC2(CC2)C3)cc1O[C@@H](C)C(F)(F)F [Compound 39]
17 | < 50 nM | – | ≤ 50 nM | – | CC(C)Oc1cc(-n2nc3n(c2=O)CCC2(CC2)C3)c(F)cc1C(=O)Nc1c(F)cccc1Cl [Compound 40]
18 | < 50 nM | – | ≤ 50 nM | – | CC[C@H](C)Oc1cc(-n2nc3n(c2=O)CCC2(CC2)C3)c(F)cc1C(=O)Nc1c(F)cccc1Cl [Compound 41]
19 | < 50 nM | – | ≤ 50 nM | – | CCC[C@H](C)Oc1cc(-n2nc3n(c2=O)CCC2(CC2)C3)c(F)cc1C(=O)Nc1c(F)cccc1Cl [Compound 42]

Row | IC50 [1] | IC50 ([4]; Homo sapiens, MV4-11, 72 h) | IC50 [4, 7] | further results | Compound
20 | < 50 nM | – | ≤ 50 nM | – | CC(C)[C@H](C)Oc1cc(-n2nc3n(c2=O)CCC2(CC2)C3)c(F)cc1C(=O)Nc1c(F)cccc1Cl [Compound 43]
21 | < 50 nM | – | ≤ 50 nM | – | C[C@H](Oc1cc(-n2nc3n(c2=O)CCC2(CC2)C3)c(F)cc1C(=O)Nc1c(F)cccc1Cl)C1CC1 [Compound 44]
22 | < 50 nM | – | ≤ 50 nM | – | C[C@H](Oc1cc(-n2nc3n(c2=O)CCC2(CC2)C3)c(F)cc1C(=O)Nc1c(F)cccc1Cl)C1CCC1 [Compound 45]
23 | < 50 nM | – | ≤ 50 nM | – | C[C@H](Oc1cc(-n2nc3n(c2=O)CCC2(CC2)C3)c(F)cc1C(=O)Nc1c(F)cccc1Cl)C1CCCC1 [Compound 46]
24 | < 50 nM | – | ≤ 50 nM | – | C[C@H](Oc1cc(-n2nc3n(c2=O)CCC2(CC2)C3)c(F)cc1C(=O)Nc1c(F)cccc1Cl)C1CCCCC1 [Compound 47]
25 | < 50 nM | 10.7 nM | – | – | C[C@H](Oc1cc(-n2nc3n(c2=O)CC2(CC2)C3)c(F)cc1C(=O)Nc1c(F)cccc1Cl)C(F)(F)F [Compound 48]
26 | < 50 nM | – | ≤ 50 nM | – | C[C@H](Oc1cc(-n2nc3n(c2=O)CC2(CC2)C3)c(F)cc1C(=O)Nc1c(F)cccc1Cl)C1CCCCC1 [Compound 49]
27 | < 50 nM | – | ≤ 50 nM | – | CCC[C@H](C)Oc1cc(-n2nc3n(c2=O)CC2(CC2)C3)c(F)cc1C(=O)Nc1c(F)cccc1Cl [Compound 50]
28 | < 50 nM | 5.45 nM | – | IC50 ([2]; Homo sapiens): 47.6 nM | C[C@H](Oc1cc(-n2nc3n(c2=O)CCCC2(CC2)C3)c(F)cc1C(=O)Nc1c(F)cccc1Cl)C(F)(F)F [Compound 51]
29 | < 50 nM | – | ≤ 50 nM | – | C[C@H](Oc1cc(-n2nc3n(c2=O)CCCC2(CC2)C3)c(F)cc1C(=O)Nc1c(F)cccc1Cl)C1CCCCC1 [Compound 52]
30 | < 50 nM | 6.89 nM | – | – | CCC[C@H](C)Oc1cc(-n2nc3n(c2=O)CCCC2(CC2)C3)c(F)cc1C(=O)Nc1c(F)cccc1Cl [Compound 53]
31 | < 50 nM | 0.51 nM | – | IC50 ([2]; Homo sapiens): 24.5 nM | C[C@H](Oc1nc(-n2nc3n(c2=O)CCC2(CC2)C3)c(F)cc1C(=O)Nc1c(F)cccc1Cl)C(F)(F)F [Compound 54, (S)—N-(2-chloro-6-fluorophenyl)-5-fluoro-4-(3′-oxo-5′,6′-dihydro-3′H-spiro[cyclopropane-1,7-[1,2,4]triazolo[4,3-α]pyridin]-2′(8′H)-yl)-2-((1,1,1-trifluoropropan-2-yl)oxy)benzamide]
32 | < 50 nM | 1.45 nM | – | – | C[C@H](Oc1nc(-n2nc3n(c2=O)CCC2(CC2)C3)c(F)cc1C(=O)Nc1c(F)cccc1Cl)C1CCCCC1 [Compound 55]
33 | < 50 nM | 1.97 nM | – | – | CCC[C@H](C)Oc1nc(-n2nc3n(c2=O)CCC2(CC2)C3)c(F)cc1C(=O)Nc1c(F)cccc1Cl [Compound 56]
34 | < 50 nM | 0.32 nM | – | – | COc1ncc(C)c(NC(=O)c2cc(F)c(-n3nc4n(c3=O)CCC3(CC3)C4)nc2O[C@@H](C)C(F)(F)F)c1Cl [Compound 57]
35 | < 50 nM | 0.75 nM | – | – | COc1ncc(C)c(NC(=O)c2cc(F)c(-n3nc4n(c3=O)CCC3(CC3)C4)nc2O[C@@H](C)C2CCCCC2)c1Cl [Compound 58]
36 | < 50 nM | 2.05 nM | – | – | CCC[C@H](C)Oc1nc(-n2nc3n(c2=O)CCC2(CC2)C3)c(F)cc1C(=O)Nc1c(C)cnc(OC)c1Cl [Compound 59]
37 | – | – | – | IC50 [2]: 35.6 nM; IC50 [4]: 3.82 nM | BAY-2402234 [reference compound]
